From the METLIN SMRT retention time set (Domingo-Almenara et al. 2019)

Experiment: gradient 5% acetonitrile 3 min, to 50% in 2 min, to 85% in 15 min, held 3 min, 100 µL/min
Details: column: Zorbax Extend-C18 2.1 x 50 mm; eluents: water / acetonitrile, 0.1% formic acid
In short: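 Retention time was recorded from adduct peaks, which were picked computationally and each inspected manually. Pure standards ran in mixtures of ~100 molecules on HPLC coupled to a quadrupole time-of-flight mass spectrometer, in positive and negative ionization mode, through a Zorbax Extend-C18 column (2.1 × 50 mm, 1.8 μm) at 100 μL/min. Eluents were water and acetonitrile, each with 0.1% formic acid.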

RP-LC retention time	Structure (SMILES)
896 s	Cc1cc(F)ccc1NC(=O)CN1C(=O)C2CCCCN2c2ccc(S(=O)(=O)N(C)C)cc21 (stereo unspecified)
739 s	CCc1ccc(NS(=O)(=O)c2cc3n(c2)CCCN(C)C3=O)cc1
1000 s	CC(C)Oc1ccc(CNC(=O)c2nnc(-c3ccc(S(=O)(=O)N4CCCC4)cc3)o2)cc1
653 s	CCCNC(=O)N1CCC(N2CCN(Cc3ccccc3)C(=O)C2=O)CC1
548 s	CCc1nnc2cc(N3CCN(C(=O)Nc4ccccc4Cl)CC3)cnn12
1110 s	O=S(=O)(c1ccc(-c2noc(-c3ccccc3Br)n2)cc1)N1CCOCC1
934 s	Cc1cc(Cl)ccc1NC(=O)CN(C)S(=O)(=O)c1cc(C(=O)N2CCC(C)CC2)n(C)c1
917 s	COc1ccc(S(=O)(=O)N2CCCC(C)(C(=O)NCc3ccccc3)C2)cc1 (stereo unspecified)
878 s	O=S(=O)(Nc1cc(F)cc(F)c1)c1ccc(-c2nnc(C3CC3)o2)o1
693 s	CCn1cc(S(=O)(=O)Nc2ccc3nc(S(=O)(=O)CC)sc3c2)cn1
598 s	COc1ccc(CN(C)Cc2cc(=O)n3cc(C)ccc3n2)cc1
1010 s	CCOC(=O)c1cc(S(=O)(=O)N2CCCC2C(=O)Nc2cccc(Br)c2)cn1C (stereo unspecified)
726 s	CCn1cnc(S(=O)(=O)N2CCCC(C(=O)Nc3ccccc3)C2)c1 (stereo unspecified)
730 s	O=C1NCCCn2cc(S(=O)(=O)N3CCN(c4ccc(F)cc4)CC3)cc21
882 s	COc1ccc(C2C(=O)N(C3CCCCC3)CC(=O)N2Cc2cccs2)cc1OC (stereo unspecified)
900 s	CCCN1C(=O)c2c(C(=O)NCCc3ccccc3C)ncn2CC1(C)C(=O)NCCC(C)C (stereo unspecified)
672 s	Cn1c(N2CCN(C(=O)c3cccc(Br)c3)CC2)cc(=O)n(C)c1=O
606 s	COc1ccc(CN(C)Cc2cc(=O)n3cc(Cl)ccc3n2)cc1OC
742 s	CCc1ccc(S(=O)(=O)N2CCC3(CC2)NCCN=C3NCc2ccccc2)cc1
853 s	CN1C(=O)c2cc(C(=O)NCCC3=CCCCC3)nn2CC1(C)C(=O)NCc1ccccc1 (stereo unspecified)
986 s	Cc1nn(-c2ccccc2)c(C)c1S(=O)(=O)N1CCC(C(=O)N2CCc3ccccc3C2)CC1
641 s	CCc1nc2cc(CNC(=O)Cc3ccc(Cl)cc3)ccc2n1C

The remaining lines, values behind:

Structure (SMILES)	RP-LC retention time
O=C(NCCCN1CCOCC1)c1c(OCC2CC2)cc(=O)n2c1CCCCC2	568 s
Cn1cccc1C(=O)N1CCCC1c1nc(-c2ccccc2)n[nH]1 (stereo unspecified)	716 s
CN(C)C(=O)c1ccc2oc(CN3CCN(C(=O)NC4CCCCC4)CC3)nc2c1	614 s
COc1ccc2nc(NC(=O)C3CCN(c4nc(-c5ccc(OC)c(OC)c5)no4)CC3)sc2c1	933 s
Cc1occc1-c1nnc2sc(COc3ccc(F)cc3)nn12	939 s
Cc1sc2ccn(CC(C)C)c(=O)c2c1C(=O)N1CCN(c2ccccn2)CC1	618 s
COc1ccc(-c2nnc(-c3ccccc3)o2)cc1S(=O)(=O)Nc1cccnc1	725 s
CSc1ccc(Cl)c(-c2nc(-c3ccc4c(c3)oc(=O)n4C)no2)c1	1170 s
CCC(=O)N1c2ccccc2NC2=C(C(=O)CC(C)(C)C2)C1c1ccc(O)c(OC)c1 (stereo unspecified)	703 s
Cc1cc(C)n2c(Nc3ccccc3)c(-c3ccc(Br)cc3O)nc2n1	1120 s
c1cc(-c2nnc3sc(-c4csc5c4CCCC5)nn23)ccn1	993 s
COc1ccc(OC)c(NC(=O)Cn2nc3c4ccc(Cl)cc4ncn3c2=O)c1	740 s
O=C(c1ccnnc1)N1CC(F)(F)C[C@H]1c1nnc(-c2ccccc2)o1	696 s
CC(=O)N(C1CC1)C1CCOC2(CCN(C(=O)Cc3c(C)noc3C)CC2)C1 (stereo unspecified)	659 s
COc1ccccc1-c1nc2nccc(-c3ccncc3)n2n1	654 s
O=C(Nc1ccc(Cl)c(Cl)c1)Nc1nc(-c2ccccc2)cs1	1220 s
COc1ccc(C2(C(=O)N3CC(c4nc(CCOCc5ccccc5)no4)C3)CC2)cc1	972 s
COc1cc(NC(=O)C2CCCN(c3nnc4ccccn34)C2)cc(OC)c1OC (stereo unspecified)	634 s
Brc1cncc(-c2nc(-c3ccc4c(c3)ncn4CCN3CCCC3)no2)c1	631 s
Cc1nnc(NC(=O)c2cn(Cc3cccc(F)c3)nc2OCc2cccc(F)c2)s1	935 s
CCn1c(SCC(=O)Nc2nc(-c3ccccc3)cs2)nnc1-c1nonc1NC(C)=O	897 s
Cc1c(C)n(-c2ccc(Cl)cc2)c2ncn(CC(=O)NCc3ccco3)c(=O)c12	868 s

Structure (SMILES)	RP-LC retention time
CC(C)CN(CC(C)C)C(=O)C1CCN(S(=O)(=O)c2cccc3nsnc23)CC1	1040 s
COC(=O)c1ccc(C2CC(=O)Nc3cc(OC)cc(OC)c32)cc1 (stereo unspecified)	784 s
COc1ccc(C(=O)N2CCC3(CC2)NC(=O)c2cccc(Cl)c2N3)cc1	738 s
O=C(NCc1c(F)cccc1F)c1csc(Nc2ncccn2)n1	695 s
Cc1cccc(N2CCN(C(=O)C3CCN(C(=O)C4Sc5ccccc5NC4=O)CC3)CC2)c1C (stereo unspecified)	918 s
CCCn1c(=O)c(C)nc2cc(-c3noc(C4CC(=O)N(c5ccccc5)C4)n3)ccc21 (stereo unspecified)	895 s
COCCN(CCOC)C(=O)Cc1csc(NC(=O)Nc2ccc(Cl)cc2)n1	733 s
COc1ccc(OCc2nn3c(-c4ccc(OC)c(OC)c4)nnc3s2)cc1	867 s
COC(=O)[C@@H]1Cc2c([nH]c3ccccc23)C(c2ccccc2C)N1 (stereo partly specified)	685 s
Cc1ccc(C)c(NC(=O)Cn2cnc(-c3noc(-c4ccncc4)n3)c2)c1	687 s
O=c1c(=O)n(-c2cccc(Cl)c2)ccn1Cc1nc(-c2cccc(F)c2)no1	895 s
CCCSc1nnc(NC(=O)CCc2ccc(C)o2)s1	892 s
CC(=O)N1CCCCC1c1nc(-c2cccnc2)no1 (stereo unspecified)	663 s
O=C(Nc1ccc2ccccc2c1)c1cccc(F)c1	1060 s
CCCOc1nc2ccccc2nc1N1CCCC(C(=O)N2CCN(c3ccc(OC)cc3)CC2)C1 (stereo unspecified)	1280 s
Cc1nc(-c2cccnc2)nc2c1CCC(=O)N2CC1CCCCC1	963 s
COc1ccc(-c2noc(CN3CCN(c4ccccc4)CC3)n2)cc1OC	846 s
O=c1[nH]c2ccc(NCc3ccccc3Cl)cc2[nH]1	641 s
CCNC(=O)N1CCCC(c2cccc(C(=O)NC3CCCC3)c2)C1 (stereo unspecified)	764 s
O=C(NCc1csc(C2CCCN(C(=O)c3ccc(F)cc3F)C2)n1)C1CCC1 (stereo unspecified)	699 s
Cc1c(Cl)cccc1NC(=O)Cn1nc(N(C)C)c2ccccc2c1=O	906 s
COc1ccccc1OCCNc1nc2ccncc2n(C(C)C)c1=O	573 s
